Data from article PMC6934184, “Selective DNA-PKcs inhibition extends the therapeutic index of localized radiotherapy and chemotherapy” (The Journal of Clinical Investigation, 2019).

Target: T1, DYRK2 (Homo sapiens, UniProt Q92630)
T1 construct: purchased Thermo Fisher Scientific (Life Technologies) SelectScreen
Assay: SelectScreen LanthaScreen
Format: binding
Conditions: read-out: % displacement
Method in brief: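 Percent values come from Thermo SelectScreen profiling of NU5455, combining activity and binding assays. CSF1R was run in Z'LYTE format at Km app ATP, and CAMK1 in Adapta format with ATP listed at 10.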

T1 sequence (Q92630 whole entry): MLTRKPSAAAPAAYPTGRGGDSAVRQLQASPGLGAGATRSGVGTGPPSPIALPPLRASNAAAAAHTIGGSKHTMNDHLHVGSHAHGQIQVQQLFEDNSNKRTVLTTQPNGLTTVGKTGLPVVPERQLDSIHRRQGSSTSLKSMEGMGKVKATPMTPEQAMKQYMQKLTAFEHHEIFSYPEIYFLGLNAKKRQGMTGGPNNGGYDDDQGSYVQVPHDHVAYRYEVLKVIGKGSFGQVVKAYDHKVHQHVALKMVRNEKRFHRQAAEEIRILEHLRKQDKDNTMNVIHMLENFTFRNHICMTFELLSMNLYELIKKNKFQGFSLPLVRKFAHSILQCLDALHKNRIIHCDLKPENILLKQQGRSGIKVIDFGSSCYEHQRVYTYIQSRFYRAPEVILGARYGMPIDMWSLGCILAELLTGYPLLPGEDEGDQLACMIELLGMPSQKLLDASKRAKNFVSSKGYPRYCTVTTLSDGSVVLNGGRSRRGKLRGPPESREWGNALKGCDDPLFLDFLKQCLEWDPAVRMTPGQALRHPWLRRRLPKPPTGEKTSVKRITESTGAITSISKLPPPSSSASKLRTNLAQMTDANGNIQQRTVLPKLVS

With `CN(C(=O)CN1CCOCC1)c1ccc2sc3c(-c4cccc5c(=O)cc(N6CC7CCC(C6)O7)oc45)cccc3c2c1` [NU5455] the inhibition at 1 µM was 5%.
